# Source: US10899714B2, “6-aminoisoquinoline compounds” (Aerie Pharmaceuticals, Inc., priority 2007, dated 2021)
# Where a name gives a salt, the structure may show the parent alone.
# Legend:
# Type in all cases: in vivo
# [1] = Topical ocular composition (Example 212), dry eye syndrome; details: 0.50 wt % topical composition, drop twice per day
# [2] = Topical ocular composition (Example 212), allergic symptoms; details: 0.50 wt % topical composition
# [3] = Topical ocular composition (Example 212), hyperemia, redness and ocular irritation; details: 0.50 wt % topical composition, drop as needed
# [4] = tested on: patient suffering from glaucoma; assay: Topical ocular composition (Example 212) lowering intraocular pressure; details: 0.50 wt % topical composition
# Protocol: Examples of such assays are described in the following reference, incorporated herein by reference: C. Liljebris, G. Selen. B. Resul, J. Sternschantz, and U. Hacksell, “Derivatives of 17-Phenyl-18, 19, 20-trinorprostaglandin F2α Isopropyl Ester: Potential Anti-glaucoma Agents”, Journal of Medicinal Chemistry, Vol. 38 (2) 1995, pp. 289-304.
# Topical pharmaceutical compositions for lowering intraocular pressure are prepared by conventional methods and formulated as follows: […]
# A compound according to this invention is used as the 6-aminoisoquinoline derivative. […]
# [5] = Topical ocular composition (Example 212), neuroprotective effect; details: 0.50 wt % topical composition, drop 4 times per day
smiles,measurement,setting,value
"O=C(CCl)Nc1ccc2cnccc2c1 [Example E1, 2-chloro-N-(isoquinolin-6-yl) acetamide]",dry eye syndrome,[1],relieves dry eye syndrome
same,allergic symptoms,[2]; drop twice per day,substantially decreases allergic symptoms
"NCC(=O)Nc1ccc2cnccc2c1 [Example E40, 2-amino-N-isoquinoline-6-yl-acetamide dihydrochloride]","hyperemia, redness and ocular irritation",[3],"substantially decreases hyperemia, redness and ocular irritation"
"O=C(CNCc1ccccc1)Nc1ccc2cnccc2c1 [Example E58, 2-(benzylamino)-N-(isoquinolin-6-yl)acetamide]",intraocular pressure,[4]; drop twice per day,substantially decreases intraocular pressure
"O=C(Nc1ccc2cnccc2c1)OCc1ccccc1 [Example E87, benzylisoquinolin-6-ylcarbamate]",dry eye syndrome,[1],relieves dry eye syndrome
same,allergic symptoms,[2]; drop twice per day,substantially decreases allergic symptoms
"O=C(NCc1ccccc1)Nc1ccc2cnccc2c1 [Example E88, 1-benzyl-3-(isoquinolin-6-yl)urea]",allergic symptoms,[2]; drop as needed,substantially decreases allergic symptoms
"O=C(CN1CCOCC1)Nc1ccc2cnccc2c1 [Example E105, N-(isoquinolin-6-yl)-2-morpholinoacetamide]","hyperemia, redness and ocular irritation",[3],"substantially decreases hyperemia, redness and ocular irritation"
"O=C(Nc1ccncc1)c1ccc(C2CC2C(=O)Nc2ccc3cnccc3c2)cc1 (stereo not shown) [Example E118, 4-(2-(isoquinolin-6-ylcarbamoyl)cyclopropyl)-N-(pyridin-4-yl)benzamide]",intraocular pressure,[4]; drop twice a day or as needed,substantially decreases intraocular pressure
"CNC(=O)c1cccc(NCC(=O)Nc2ccc3cnccc3c2Cl)c1 [Example E119b, 3-(2-(5-chloroisoquinolin-6-ylamino)-2-oxoethylamino)-N-methyl benzamide]",intraocular pressure,[4]; drop twice a day or as needed,substantially decreases intraocular pressure
"CNC(=O)c1cccc(NCS(=O)(=O)Nc2ccc3cnccc3c2)c1 [Example E136, 3-((N-isoquinolin-6-ylsulfamoyl)methylamino)-N-methylbenzamide]",intraocular pressure,[4]; drop twice per day,substantially decreases intraocular pressure
"N[C@@H](CSCC(C(=O)c1ccc(/C=C/C(=O)Nc2ccc3cnccc3c2)cc1)c1ccccc1)C(=O)O (stereo partly drawn) [Example E207, (2R)-2-amino-3-(3-(4-((E)-3-(isoquinolin-6-ylamino)-3-oxoprop-1-enyl)phenyl)-3-oxo-2-phenylpropylthio)propanoic acid]",neuroprotective agent,[5],serves as a neuroprotective agent
same,intraocular pressure,[4]; drop 4 times per day,substantially decreases intraocular pressure
